How the values were obtained:
Assay type in all cases: cell-based
[1] = system: B16F10 (malignant melanoma); assay: Antiproliferative activity (CCK-8 cell viability), B16F10; conditions: Mus musculus, 72 h, read-out: Antiproliferative activity in cancerous cells, B16F10 (inhibition of cell growth); for inhibition at 3.3 µM: B16-F10, Compound concentration: 3.3 μM; for inhibition at 10 µM: B16-F10, Compound concentration: 10 μM
Procedure, shortened: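 Cell growth inhibition was measured in B16F10 malignant melanoma cells with a Cell Counting Kit-8 viability assay. Cells were maintained in DMEM plus 10% fetal bovine serum, seeded at 2,000-5,000 cells/well in 96-well plates, and treated for 72 h at 37° C. Viability was expressed relative to DMSO-treated vehicle control wells.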

SW480 (colon cancer) = assay: Antiproliferative activity (CCK-8 cell viability), SW480; conditions: Homo sapiens, 72 h; for inhibition at 3.3 µM: Compound concentration: 3.3 μM; for inhibition at 3.3 µM / inhibition at 10 µM: read-out: Antiproliferative activity in cancerous cells, SW480 (inhibition of cell growth); for inhibition at 10 µM: Compound concentration: 10 μM; for inhibition at 30 µM: Compound concentration: 30 μM, read-out: Antiproliferative activity in cancerous cells, SW480
Procedure, shortened: (§1)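 Growth inhibition graded in bands from percent viability against DMSO vehicle, read as CCK-8 absorbance at 450 nm. Compound tested at 3.3, 10 or 30 μM for 72 h, 37 °C; media contained 10% FBS: DMEM for HepG2/SW480, MEM for HeLa, F-12K for A549.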

[2] = system: A549 (lung adenocarcinoma); assay: Antiproliferative activity (CCK-8 cell viability), A549; conditions: Homo sapiens, 72 h; for inhibition at 3.3 µM: Compound concentration: 3.3 μM; for inhibition at 3.3 µM / inhibition at 10 µM: read-out: Antiproliferative activity in cancerous cells, A549 (inhibition of cell growth); for inhibition at 10 µM: Compound concentration: 10 μM
Procedure, shortened: as §1

[3] = system: A431 (epidermoid carcinoma); assay: Antiproliferative activity (CCK-8 cell viability), A431; conditions: Homo sapiens, 72 h, read-out: Antiproliferative activity in cancerous cells, A431 (inhibition of cell growth); for inhibition at 3.3 µM: A-431, Compound concentration: 3.3 μM; for inhibition at 10 µM: A-431, Compound concentration: 10 μM
Procedure, shortened: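 This growth inhibition assay used A431 cells maintained in Dulbecco's modified Eagle's medium plus 10% fetal bovine serum. Cells were seeded in 96-well plates, treated with compound for 72 h at 37° C., and then given 10 μL CCK-8 solution. After a further 4 h, absorbance was read at 450 nm.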

HepG2 (liver cancer) = assay: Antiproliferative activity (CCK-8 cell viability), HepG2; conditions: Homo sapiens, 72 h; for inhibition at 3.3 µM: Compound concentration: 3.3 μM; for inhibition at 3.3 µM / inhibition at 10 µM: read-out: Antiproliferative activity in cancerous cells, HepG2 (inhibition of cell growth); for inhibition at 10 µM: Compound concentration: 10 μM
Procedure, shortened: as §1

[4] = system: alpha-smooth muscle actin (α-SMA); assay: Inhibition of TGF-β induced expression of alpha-smooth muscle actin (α-SMA) in CFSC cells (western blot); conditions: compound at 10 μM, TGF-β (10 ng/mL), 24 hours, band intensity vs TGF-β only
Procedure, shortened: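 Values are percent reduction of α-SMA band intensity relative to cells given TGF-β alone, quantified by Western blot densitometry with β-actin probed. Compound was applied at 10 μM alongside 10 ng/mL TGF-β to serum-free CFSC cultures for 24 h at 37 °C.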

HeLa (cervical cancer) = assay: Antiproliferative activity (CCK-8 cell viability), HeLa; conditions: Homo sapiens, 72 h; for inhibition at 3.3 µM: Compound concentration: 3.3 μM; for inhibition at 3.3 µM / inhibition at 10 µM: read-out: Antiproliferative activity in cancerous cells, HELA (inhibition of cell growth); for inhibition at 10 µM: Compound concentration: 10 μM; for inhibition at 30 µM: Compound concentration: 30 μM, read-out: Antiproliferative activity in cancerous cells, HELA
Procedure, shortened: as §1

[5] = system: MDA-MB-231 (breast cancer); assay: Antiproliferative activity (CCK-8 cell viability), MDA-MB-231; conditions: Homo sapiens, 72 h; for inhibition at 3.3 µM: Compound concentration: 3.3 μM; for inhibition at 3.3 µM / inhibition at 10 µM: read-out: Antiproliferative activity in cancerous cells, MDA-MB-231 (inhibition of cell growth); for inhibition at 10 µM: Compound concentration: 10 μM
Procedure, shortened: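 Growth inhibition of human MDA-MB-231 breast cancer cells was assessed with a Cell Counting Kit-8. Cells cultured in DMEM plus 10% FBS were seeded at 2,000-5,000 cells/well, treated after attachment, and kept 72 h at 37° C. CCK-8 solution (10 μL) was added for 4 h, and absorbance at 450 nm was compared with DMSO-treated controls.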

| SMILES | inhibition at 3.3 µM [1] [%] | inhibition at 10 µM [1] [%] | inhibition at 3.3 µM (SW480 (colon cancer)) [%] | inhibition at 10 µM (SW480 (colon cancer)) [%] | inhibition at 30 µM (SW480 (colon cancer)) [%] | inhibition at 3.3 µM [2] [%] | inhibition at 10 µM [2] [%] | inhibition at 3.3 µM [3] [%] | inhibition at 10 µM [3] [%] | inhibition at 3.3 µM (HepG2 (liver cancer)) [%] | inhibition at 10 µM (HepG2 (liver cancer)) [%] | inhibition at 10 µM [4] [%] | inhibition at 3.3 µM (HeLa (cervical cancer)) [%] | inhibition at 10 µM (HeLa (cervical cancer)) [%] | inhibition at 30 µM (HeLa (cervical cancer)) [%] | inhibition at 3.3 µM [5] [%] | inhibition at 10 µM [5] [%] | inhibition at 30 µM ([2]; Compound concentration: 30 μM, read-out: Antiproliferative activity in cancerous cells, A549) [%] | inhibition at 30 µM (HepG2 (liver cancer); Compound concentration: 30 μM, read-out: Antiproliferative activity in cancerous cells, HepG2) [%] | inhibition at 30 µM ([5]; Compound concentration: 30 μM, read-out: Antiproliferative activity in cancerous cells, MDA-MB-231) [%] |
| --- | --- | --- | --- | --- | --- | --- | --- | --- | --- | --- | --- | --- | --- | --- | --- | --- | --- | --- | --- | --- |
| CC1=C(CC(=O)O)c2ccc(F)cc2/C1=C\c1ccc(Oc2ccc(F)cc2)cc1 [C3, (Z)-2-(6-Fluoro-1-(4-(4-fluorophenoxy)benzylidene)-2-methyl-1H-inden-3-yl)-acetic acid] | < 30 | 30 to 50 | < 30 | < 30 | < 30 | 30 to 50 | 30 to 50 | ≥ 50 | ≥ 50 | ≥ 50 | ≥ 50 | < 30 | < 30 | < 30 | < 30 | < 30 | 30 to 50 |  |  |  |
| CC1=C(CC(=O)O)c2cc(C)ccc2/C1=C\c1ccc(Oc2ccc(F)cc2)cc1 [C4, (Z)-2-(1-(4-(4-Fluorophenoxy)benzylidene)-2,5-dimethyl-1H-inden-3-yl)acetic acid] | < 30 | < 30 | < 30 | < 30 | 30 to 50 | < 30 | 30 to 50 | < 30 | 30 to 50 | 30 to 50 | ≥ 50 | > 80 | < 30 | ≥ 50 |  | < 30 | 30 to 50 |  |  |  |
| CCc1ccc2c(c1)C(CC(=O)O)=C(C)/C2=C/c1ccc(Oc2ccc(F)cc2)cc1 [C5, (Z)-2-(5-Ethyl-1-(4-(4-fluorophenoxy)benzylidene)-2-methyl-1H-inden-3-yl)-acetic acid] | < 30 | ≥ 50 | < 30 | < 30 |  | 30 to 50 | 30 to 50 | ≥ 50 | ≥ 50 | ≥ 50 | ≥ 50 | > 80 | < 30 | ≥ 50 |  | < 30 | ≥ 50 |  |  |  |
| CCC1=C(CC(=O)O)c2cc(F)ccc2/C1=C\c1ccc(Oc2ccc(F)cc2)cc1 [C6, (Z)-2-(2-Ethyl-5-fluoro-1-(4-(4-fluorophenoxy)benzylidene)-1H-inden-3-yl)acetic acid] | 30 to 50 | ≥ 50 | ≥ 50 | ≥ 50 |  | 30 to 50 | ≥ 50 | 30 to 50 | ≥ 50 | < 30 | 30 to 50 | > 80 | ≥ 50 | ≥ 50 |  | ≥ 50 | ≥ 50 |  |  |  |
| O=C(O)CC1=C(CC2CCCC2)/C(=C/c2ccc(Oc3ccc(F)cc3)cc2)c2ccc(F)cc21 [C7, (Z)-2-(2-(Cyclopentylmethyl)-5-fluoro-1-(4-(4-fluorophenoxy)benzylidene)-1H-inden-3-yl)acetic acid] | ≥ 50 | ≥ 50 | ≥ 50 | ≥ 50 |  | ≥ 50 | ≥ 50 | ≥ 50 | ≥ 50 | 30 to 50 | ≥ 50 | > 80 | ≥ 50 | ≥ 50 |  | ≥ 50 | ≥ 50 |  |  |  |
| CCCC1=C(CC(=O)O)c2cc(F)ccc2/C1=C\c1ccc(Oc2ccc(F)cc2)cc1 [C8, (Z)-2-(5-Fluoro-1-(4-(4-fluorophenoxy)benzylidene)-2-propyl-1H-inden-3-yl)-acetic acid] | 30 to 50 | ≥ 50 | < 30 | ≥ 50 |  | ≥ 50 | ≥ 50 | < 30 | ≥ 50 | ≥ 50 | ≥ 50 | > 80 | ≥ 50 | ≥ 50 |  | ≥ 50 | ≥ 50 |  |  |  |
| CC1=C(CC(=O)O)c2c(F)cccc2/C1=C\c1ccc(Oc2ccc(F)cc2)cc1 [C9, (Z)-2-(4-Fluoro-1-(4-(4-fluorophenoxy)benzylidene)-2-methyl-1H-inden-3-yl)-acetic acid] | ≥ 50 | ≥ 50 | < 30 | < 30 | < 30 | < 30 | < 30 | 30 to 50 | 30 to 50 | 30 to 50 | < 30 | < 30 | < 30 | < 30 | < 30 | 30 to 50 | 30 to 50 | < 30 | 30 to 50 | 30 to 50 |
| CC1=C(CC(=O)O)c2ccc(F)c(F)c2/C1=C\c1ccc(Oc2ccc(F)cc2)cc1 [C10, (Z)-2-(6,7-Difluoro-1-(4-(4-fluorophenoxy)benzylidene)-2-methyl-1H-inden-3-yl)acetic acid] | 30 to 50 | ≥ 50 | < 30 | ≥ 50 |  | < 30 | 30 to 50 | < 30 | ≥ 50 | 30 to 50 | 30 to 50 | > 80 | ≥ 50 | ≥ 50 |  | 30 to 50 | ≥ 50 |  |  |  |
| O=C(O)CC1=C(Cc2ccc(C(F)(F)F)cc2)/C(=C/c2ccc(Oc3ccc(F)cc3)cc2)c2ccc(F)cc21 [C11, (Z)-2-(5-Fluoro-1-(4-(4-fluorophenoxy)benzylidene)-2-(4-(trifluoromethyl)-benzyl)-1H-inden-3-yl)acetic acid] | ≥ 50 | ≥ 50 | ≥ 50 | ≥ 50 |  | ≥ 50 | ≥ 50 | ≥ 50 | ≥ 50 | ≥ 50 | ≥ 50 | > 80 | ≥ 50 | ≥ 50 |  | ≥ 50 | ≥ 50 |  |  |  |

From US20260184663A1, “INDENE COMPOUNDS, PHARMACEUTICAL COMPOSITIONS THEREOF, AND THEIR THERAPEUTIC APPLICATIONS” (NucMito Pharmaceuticals co. Ltd., priority 2022, published 2026)
